Measured values as given in ChEMBL document CHEMBL1158690, “Characterization of lipophilic pentasaccharides from beach morning glory (Ipomoea pes-caprae)” (2005).

How the values were obtained:
Assay type in all cases: functional
[1] = Cytotoxicity against human nasopharyngeal carcinoma cells; conditions: Nasopharyngeal carcinoma cell, read-out: ED50 (the source's name)
[2] = Cytotoxicity against human colon carcinoma cells; conditions: Colon carcinoma cell, read-out: ED50 (the source's name)
[3] = Cytotoxicity against human squamous cervical carcinoma cells; conditions: read-out: ED50 (the source's name)
[4] = Cytotoxicity against human ovarian carcinoma cells; conditions: Ovarian carcinoma cell, read-out: ED50 (the source's name)

Measured: EC50

CCCCCCCCCCCC(=O)O[C@H]1[C@H](O[C@@H]2[C@H]3OC(=O)CCCCCCCCC[C@H](CCCCC)O[C@@H]4O[C@H](C)[C@H](O)[C@H](O)[C@H]4O[C@H](O[C@H]2C)[C@@H]3O)O[C@@H](C)[C@H](O[C@@H]2O[C@@H](C)[C@H](OC(=O)[C@@H](C)CC)[C@@H](O)[C@H]2O)[C@H]1O[C@@H]1O[C@@H](C)[C@H](O)[C@@H](O)[C@H]1O [PESCAPREIN III]
5 µg/mL: all assays above

CCCCCCCCCCCC(=O)O[C@H]1[C@H](O[C@@H]2[C@H]3OC(=O)CCCCCCCCC[C@H](CCCCC)O[C@@H]4O[C@H](C)[C@H](O)[C@H](O)[C@H]4O[C@H](O[C@H]2C)[C@@H]3O)O[C@@H](C)[C@H](O[C@@H]2O[C@@H](C)[C@H](OC(=O)C(C)C)[C@@H](O)[C@H]2O)[C@H]1O[C@@H]1O[C@@H](C)[C@H](O)[C@@H](O)[C@H]1O [PESCAPREIN II]
5 µg/mL: all assays above

CCCCCCCCCCCC(=O)O[C@H]1[C@H](O[C@@H]2[C@H]3OC(=O)CCCCCCCCC[C@H](CCCCC)O[C@@H]4O[C@H](C)[C@H](O)[C@H](O)[C@H]4O[C@H](O[C@H]2C)[C@@H]3O)O[C@@H](C)[C@H](O[C@@H]2O[C@@H](C)[C@H](OC(=O)CCCCC)[C@@H](O)[C@H]2O)[C@H]1O[C@@H]1O[C@@H](C)[C@H](O)[C@@H](O)[C@H]1O [PESCAPREIN IV]
5 µg/mL: all assays above

CCCCCCCCCCCC(=O)O[C@H]1[C@H](O[C@@H]2[C@H]3OC(=O)CCCCCCCCC[C@H](CCCCC)O[C@@H]4O[C@H](C)[C@H](O)[C@H](O)[C@H]4O[C@H](O[C@H]2C)[C@@H]3O)O[C@@H](C)[C@H](O[C@@H]2O[C@@H](C)[C@H](O)[C@@H](O)[C@H]2O)[C@H]1O[C@@H]1O[C@@H](C)[C@H](O)[C@@H](O)[C@H]1O [PESCAPREIN I]
5 µg/mL: all assays above

CCCCCCCCCCCC(=O)O[C@H]1[C@H](O[C@@H]2[C@@H](O)[C@@H](O)[C@H](O[C@H]3[C@H](O[C@@H](CCCCC)CCCCCCCCCC(=O)OC)O[C@H](C)[C@H](O)[C@@H]3O)O[C@H]2C)O[C@@H](C)[C@H](O[C@@H]2O[C@@H](C)[C@H](O)[C@@H](O)[C@H]2O)[C@H]1O[C@@H]1O[C@@H](C)[C@H](O)[C@@H](O)[C@H]1O [PESCAPROSIDE A]
5 µg/mL: all assays above

CCCCCCCCCC(=O)O[C@H]1[C@H](O[C@@H]2[C@H]3OC(=O)CCCCCCCCC[C@H](CCCCC)O[C@@H]4O[C@H](C)[C@H](O)[C@H](O)[C@H]4O[C@H](O[C@H]2C)[C@@H]3O)O[C@@H](C)[C@H](O[C@@H]2O[C@@H](C)[C@H](OC(=O)[C@@H](C)CC)[C@@H](O)[C@H]2O)[C@H]1O[C@@H]1O[C@@H](C)[C@H](O)[C@@H](O)[C@H]1O [STOLONIFERIN III]
5 µg/mL: all assays above
